Measurements: US20210284621A1 (priority 2018, published 2021)

How the values were obtained:
[1] = target: T1, CB2 receptor (Homo sapiens, UniProt P34972); test: CB2 competitive radioligand binding assay ([3H] WIN-55,212-2); set-up: expressed in transfected cells; host or cells: CHO-K1 cells; conditions: for Fold Selectivity (CB1/CB2): Table 3, ratio of Ki CB1/CB2
Procedure, shortened: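 CHO-K1 cells expressing human recombinant CB2 were incubated with compound (0.05 μM, 1% DMSO) and 2.4 nM [3H]WIN-55,212-2 in 20 mM HEPES pH 7.0, 0.5% BSA for 90 min at 37 °C. Percent inhibition of radioligand binding was reported.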

[2] = target: T1, CB2 receptor; test: cell-based; set-up: host or cells: cAMP Hunter cell lines
Procedure, shortened: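 PathHunter β-Arrestin enzyme fragment complementation cells, EA-tagged β-Arrestin and PK-tagged receptor, exposed to compound for 90 to 180 minutes at 37° C. or room temperature, 1% vehicle. Chemiluminescence read 1 h after detection reagent; agonist % activity relative to vehicle and MAX control ligand.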

[3] = target: T1, CB2 receptor; test: cAMP Assay #1: CB2 adenylylcyclase assay in CHO cells; format: cell-based; set-up: expressed in transfected cells; host or cells: CHO cells
Protocol: (§1) Compounds of the invention were assayed in an adenylylcyclase assay to determine agonist activity on the CB1 and CB2 receptors, the results of which are provided in Table 4. Exemplary methods for the adenylylcyclase assay can be found in the literature, for example, in Rhee, M-H., et al. Cannabinol Derivatives: Binding to Cannabinoid Receptors and Inhibition of Adenylylcyclase. J Med Chem. 40: 3228-3233 (1997).
CB2 Activity as determined by Adenylylcyclase Assay: CB2 receptor agonist activity was measured by measuring cAMP production. A compound of the invention was incubated with CHO cells expressing human recombinant CB2 for 10 minutes at 37° C.
(§2) Determination of EC50 values: The EC50 values (concentration producing a half-maximal response) were determined by non-linear regression analysis of the concentration-response curves generated with mean replicate values using Hill equation curve fitting: Y=D+[(A−D)/(1+(C/C50)^nH)], where Y=response, A=left asymptote of the curve, D=right asymptote of the curve, C=compound concentration, and C50=EC50, and nH=slope factor. This analysis was performed using software developed at Cerep (Hill software) and validated by comparison with data generated by the commercial software SigmaPlot® 4.0 for Windows® (© 1997 by SPSS Inc.).

[4] = system: 12 systems of human primary cells; test: BioMAP Diversity PLUS phenotypic screen; format: cell-based; conditions: 3.3 μM; for Immune modulation, cell surface and tissue remodeling biomarkers: changes at least 1.5-fold from vehicle control
Protocol: Compounds of the invention were assayed for their effects on 148 biomarkers of inflammation, immune modulation and tissue remodeling in the BioMAP® Diversity PLUS® (DiscoverX) platform designed to model aspects of human diseases in vitro (Kunkel 2004, Berg 2006, Melton 2013).
The example compounds (3.3 μM) in Table 8 induced increases or decreases in the levels of the indicated 20 biomarkers, which are at least 1.5-fold change from vehicle control and are outside the significance prediction envelop. All compounds presented in Table 8 were not cytotoxic at the concentration tested.

[5] = target: T2, CB1 receptor (Homo sapiens, UniProt P21554); test: cAMP Assay #2: Hit Hunter cAMP assay, Gi-coupled agonist activity, CB1; format: cell-based; set-up: host or cells: PathHunter cell lines
T2 sequence (P21554 whole entry): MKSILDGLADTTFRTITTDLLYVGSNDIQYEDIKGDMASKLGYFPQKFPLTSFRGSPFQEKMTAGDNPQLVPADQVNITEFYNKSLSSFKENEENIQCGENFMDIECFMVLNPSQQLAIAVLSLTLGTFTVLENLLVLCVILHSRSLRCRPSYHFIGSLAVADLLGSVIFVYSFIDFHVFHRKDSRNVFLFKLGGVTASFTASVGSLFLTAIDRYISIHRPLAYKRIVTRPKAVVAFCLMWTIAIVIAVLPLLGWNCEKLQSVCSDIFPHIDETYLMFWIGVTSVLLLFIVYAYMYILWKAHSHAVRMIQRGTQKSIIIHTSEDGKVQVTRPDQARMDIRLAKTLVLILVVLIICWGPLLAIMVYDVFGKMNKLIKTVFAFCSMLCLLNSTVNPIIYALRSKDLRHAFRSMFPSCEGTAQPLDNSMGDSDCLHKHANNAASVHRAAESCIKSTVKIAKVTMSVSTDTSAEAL

[6] = target: T2, CB1 receptor; test: cell-based; set-up: host or cells: PathHunter cell lines
[7] = target: T2, CB1 receptor; test: cAMP Assay #1: CB1 adenylylcyclase assay in CHO cells; format: cell-based; set-up: expressed in transfected cells; host or cells: CHO cells
Protocol: as §1
CB1 Activity as determined by Adenylylcyclase Assay: CB1 receptor agonist activity was measured by measuring cAMP production. A compound of the invention was incubated with CHO cells expressing human recombinant CB1 for 20 minutes at 37° C.
as §2

[8] = target: T2, CB1 receptor; test: CB1 competitive radioligand binding assay ([3H] SR141716A); set-up: expressed in transfected cells; host or cells: Chem-1 cells
Procedure, shortened: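 Chem-1 cells expressing human recombinant CB1 incubated 90 min at 37° C with 2.0 nM [3H]SR141716A and compound at 0.5 μM (1% DMSO) in HEPES pH 7.4 buffer with MgCl2, CaCl2, 0.2% BSA. Read-out is % inhibition of radioligand binding.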

[9] = target: T1, CB2 receptor; test: cAMP Assay #2: Hit Hunter cAMP assay, Gi-coupled agonist activity, CB2; format: cell-based; set-up: host or cells: cAMP Hunter cell lines; conditions: for CB2 fold selectivity: Hit Hunter cAMP, CB1 EC50 / CB2 EC50
[10] = system: LPS-induced PBMCs; test: Inflammatory cytokine release from LPS-induced PBMCs (Luminex); format: cell-based, human; conditions: fold change from LPS-treated PBMCs, compounds 10 μM (DEX 1 μg/ml) 2 h, then LPS 0.1 μg/ml 24 h, negative = reduced
Protocol: Compounds of the invention were assayed for their effect on inflammatory cytokine release from lipopolysaccharides (LPS)-induced PBMCs, isolated from a human blood sample, the results of which are provided in Table 7 as fold change. Exemplary methods for quantifying secretion of inflammatory cytokines in PBMCs are known in the art, for example, as described in Hailer et al., Infection and Immunity. 68(2):752-759 (2000); and Merlini et al., Frontiers in Immunology. 7:614 (2016); each of which is incorporated herein by reference with respect to methods for evaluating cytokine release in PBMCs.
In brief, human blood samples from healthy volunteers were collected and PBMCs were isolated. PBMCs were cultured and each compound was assayed in triplicate at a final concentration of 10 μM for 2 hours. 1 μg/ml dexamethasone (DEX) served as a positive control. LPS was added at a final concentration of 0.1 μg/ml and further incubated for 24 hours. At the end of the incubation, the supernatants were collected and the levels of a panel of secreted cytokines were measured by a Human Magnetic Luminex® assay (R&D). The results in Table 7 are presented as a fold change from LPS-treated PBMCs. Reduced levels are expressed by negative values. OOR denotes values that are out of the standard curve range for the specific cytokine and thus, could not be accurately measured. Cytotoxicity was also determined. Compounds with cytotoxicity ≥50% was considered cytotoxic. Baseline cytotoxicity of untreated PBMCs was 17% and all compounds presented in Table 7 induced cytotoxicity below 25%.

[11] = PathHunter agonist mode, read-out: CB2 Activity (β-Arrestin)
[12] = OOR = out of standard curve range

T1 sequence (P34972 whole entry): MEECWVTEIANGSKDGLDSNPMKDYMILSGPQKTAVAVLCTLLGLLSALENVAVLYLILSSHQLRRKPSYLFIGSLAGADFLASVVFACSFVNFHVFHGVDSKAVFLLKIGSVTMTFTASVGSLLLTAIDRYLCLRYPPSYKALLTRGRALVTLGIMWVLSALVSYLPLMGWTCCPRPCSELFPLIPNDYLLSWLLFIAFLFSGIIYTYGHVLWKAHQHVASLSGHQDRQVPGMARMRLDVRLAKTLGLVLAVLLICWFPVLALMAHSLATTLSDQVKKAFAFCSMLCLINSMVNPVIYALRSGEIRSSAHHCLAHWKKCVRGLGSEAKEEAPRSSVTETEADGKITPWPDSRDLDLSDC

| SMILES | Ki [1] [nM] | EC50 [2, 11] [nM] | Immune modulation, cell surface and tissue remodeling biomarkers [4] | EC50 [5] [nM] | EC50 [6] [nM] | Ki [8] [nM] | EC50 [9] [nM] | CB2 fold selectivity [9] | Fold Selectivity (CB1/CB2) [1] | EC50 [2] [nM] | other results |
| --- | --- | --- | --- | --- | --- | --- | --- | --- | --- | --- | --- |
| CCCCCCC(C)(C)c1cc(O)c2c(c1)OC(C)(C)c1ccc(C(=O)O)cc1-2 [Compound 31, 1-hydroxy-6,6-dimethyl-3-(2-methyloctan-2-yl)-6H-benzo[c]chromene-9-carboxylic acid] | 2040 | 109 | Reduced Eotaxin-3 and IP-10; increased MMP-1 | 636 | > 3000 | > 3000 | 68.4 | 9.3 | – | – | inhibition at 0.05 µM ([1]; 0.05 μM compound, 2.4 nM [3H] WIN-55,212-2, 90 min 37° C.): 20%; EC50 [3]: 53 nM; EC50 [7]: > 100 nM; inhibition at 0.5 µM ([8]; 0.5 μM compound, 2.0 nM [3H] SR141716A, 90 min 37° C.): 12% |
| CCCCCCC(C)(C)c1cc(O)c2c(c1)OC(C)(C)[C@@H]1CC=C(C(=O)NC3CCC3)C[C@@H]21 [Compound 44, (6aR,10aR)-N-cyclobutyl-1-hydroxy-6,6-dimethyl-3-(2-methyloctan-2-yl)-6a,7,10,10a-tetrahydro-6H-benzo[c]chromene-9-carboxamide] | 2.4 | 1.6 | Reduced MCP-1, P-selectin, and IL-1α | – | – | 33.5 | – | – | 14.0 | – | EC50 ([6]; PathHunter agonist mode, read-out: CB1 Activity (β-Arrestin)): 11.1 nM |
| CCCCCCC(C)(C)c1cc(O)c2c(c1)OC(C)(C)[C@@H]1CC=C(C(=O)NC(C)C)C[C@@H]21 [Compound 91, (6aR,10aR)-1-hydroxy-N-isopropyl-6,6-dimethyl-3-(2-methyloctan-2-yl)-6a,7,10,10a-tetrahydro-6H-benzo[c]chromene-9-carboxamide] | 3.2 | – | Reduced Eotaxin-3, P-selectin, CD69, and EGFR, IL-10 | 6.9 | 20.9 | 34.8 | 1.5 | 4.5 | 10.9 | 1.7 | IL17A [10]: 1.2 fold change; IL-1β [10]: −1.4 fold change; IL-4 [10]: −1.6 fold change; IL-6 [10]: −2.2 fold change; IL-8 [10]: −1.3 fold change; IL-10 [10]: −2.3 fold change; MCP-1 [10]: −1.4 fold change; TNFα [10]: −1.2 fold change; IL-12 (p70) [10, 12]: −1.7 fold change; L-31 [10, 12]: −2.1 fold change |
| CCCCCCC(C)(C)c1cc(O)c2c(c1)OC(C)(C)[C@@H]1CC=C(C(=O)NC3CCCC3)C[C@@H]21 [Compound 92, (6aR,10aR)-N-cyclopentyl-1-hydroxy-6,6-dimethyl-3-(2-methyloctan-2-yl)-6a,7,10,10a-tetrahydro-6H-benzo[c]chromene-9-carboxamide] | 3.8 | – | Reduced P-selectin | 28.8 | 17.3 | 45.7 | 1.6 | 17.7 | 12.0 | 1.4 | – |
| CCCCCCC(C)(C)c1cc(O)c2c(c1)OC(C)(C)[C@@H]1CC=C(C(=O)N3CCCCC3)C[C@@H]21 [Compound 93, ((6aR,10aR)-1-hydroxy-6,6-dimethyl-3-(2-methyloctan-2-yl)-6a,7,10,10a-tetrahydro-6H-benzo[c]chromen-9-yl)(piperidin-1-yl)methanone] | 31.9 | 3.1 | Reduced Eotaxin-3, P-selectin, CD69, and M-CSF; increased IL-6 | – | > 3000 | 243 | – | – | 7.6 | – | – |
| CCCCCCC(C)(C)c1cc(O)c2c(c1)OC(C)(C)[C@@H]1CC=C(C(=O)NC(C)=N)C[C@@H]21 [Compound 94, (6aR,10aR)-1-hydroxy-N-(1-iminoethyl)-6,6-dimethyl-3-(2-methyloctan-2-yl)-6a,7,10,10a-tetrahydro-6H-benzo[c]chromene-9-carboxamide] | 12.6 | – | Reduced MCP-1 and CD69; increased IL-1α | 7.9 | 94.9 | 18.8 | 6.3 | 1.3 | 1.5 | 4.3 | – |
| CCCCCCC(C)(C)c1cc(O)c2c(c1)OC(C)(C)[C@@H]1CC=C(C(=O)NC(C)(C)C(F)(F)F)C[C@@H]21 [Compound 100, (6aR,10aR)-1-hydroxy-6,6-dimethyl-3-(2-methyloctan-2-yl)-N-(1,1,1-trifluoro-2-methylpropan-2-yl)-6a,7,10,10a-tetrahydro-6H-benzo[c]chromene-9-carboxamide] | 7.2 | 1.2 | Reduced Eotaxin-3, P-selectin, and CD69, | 107 | 257 | 72.3 | 2.1 | 49.7 | 10.0 | – | Anti-proliferation ([4]; cell type in which anti-proliferative effect was seen): Dermal fibroblasts |
